Measurements from patent US20230255970A1, “COMPOSITIONS AND METHODS FOR TREATING PROLIFERATIVE DISEASES” (The Broad Institute, Inc., priority 2020, published 2023).

Tests used:
[1] = system: HEK293, HepG2, A549 cells; settings: per PubChem, read-out: AC50, inhibition of cell proliferation; cited from earlier work
KP230 cells [2] = assay: Proliferation assay, KP230 cells; format: cell-based, mouse; settings: 10 μM daily for 72 hours
Text: (§1) YAP1 cell culture and treatments: Eisinger lab: Murine KP230 cells, a Yap1-dependent cancer cell line, were derived from a tumor from the KP mouse model (Kras^G12/D; Trp53^f/fl), as described in Eisinger-Mathason, T. S. K. et al., Proc. Natl. Acad. Sci. U.S.A 112 (2015): E3402-11, which is hereby incorporated by reference in its entirety. STS-109 UPS cells were derived from a human UPS tumor and validated by Rebecca Gladdy, MD (Sinai Health System, Toronto, Ontario, Canada). TC32 cells were a gift from Patrick Grohar, MD, PhD (Children's Hospital of Philadelphia). HT-1080, HCT-116, and HEK293T cells were purchased from ATCC. KP230, HT-1080, and HEK-293T cells were grown in DMEM with 10% FBS, 1% L-glutamine, and 1% penicillin/streptomycin (P/S). STS-109 cells were cultured in DMEM with 20% FBS, 1% L-glutamine, and 1% P/S. TC32 cells were grown in RPMI with 10% FBS, 1% L-glutamine, and 1% P/S. HCT-116 cells were cultured in McCoy's 5A medium with 10% FBS and 1% P/S. All cells were confirmed to be negative for mycoplasma contamination and were maintained in an incubator at 37C with 5% CO2. For experimental purposes, cells were cultured for up to 20 passages before being discarded, and were grown to approximately 50% confluence to circumvent the effects of high cell density on Yap1 expression and activity. All cell lines in the Eisinger laboratory were treated with 10 μM of each inhibitor or an equivalent volume of DMSO every 24 hours for 3 days, except for STS-109 cells, which were treated daily for 8 days.
(§2) NB4A treatment: Cells were treated with 10 μM of each inhibitor or an equivalent volume of DMSO every 24 hours for 3-8 days, and counted with a hemocytometer with trypan blue exclusion daily (KP230, HT-1080, TC32, HCT-116), or every 2 days (STS-109).

U2OS cells = assay: Cell count in U2OS Cell Painting images; format: cell-based, human
Text: (§3) Of these, analysis of the 220 constructs that were most closely representative of the annotated full-length transcripts was prioritized. […] Not all genes are likely to impact cellular morphology given the limitation of the experiment; using a single cell line at a single time point under a single set of conditions and stained with six fluorescent labels.
(§4) This standardization was done plate wise, based on the mean and standard deviation of the controls at profile level for the compound dataset. […] The signatures were then obtained by averaging the replicate profiles feature-wise. Pearson correlation was used on the aligned signatures of a gene and compound to score their connection.

[3] = system: H9 human pluripotent stem cells; assay: qPCR of YAP1, CTGF and CYR61 in H9 hPSCs; format: cell-based; settings: 24 hrs
Experimental: H9 hPSCs (WiCell) were maintained on vitronectin (Thermo Fisher)-coated plates in Essential 8 (E8) medium. The cells were routinely passaged using 0.5 mM EDTA and treated with 5 μM Y-27632 dihydrochloride (Tocris) on the first day. For testing the effects of the small molecules, H9 hPSCs were seeded at 50K cells/cm^2 on vitronectin-coated plates in E8 medium supplemented with 5 μM Y-27632 dihydrochloride (day 0). On day 1, the medium was switched to E8 medium. On day 2, the medium was switched to E8 medium supplemented with the small molecules. Following overnight incubation, the cells were collected for subsequent analysis on day 3.
The RNA was extracted using TRIzol (Life Technologies) and Direct-zol™ RNA MiniPrep kit (Zymo Research) as per manufacturer instructions. The RNA was reverse transcribed using iScript cDNA synthesis kit (Bio-Rad). The qPCR was performed on CFX Connect (Bio-Rad) using iTaq Universal SYBR Green Supermix (Bio-Rad). GAPDH was used as a reference gene for normalization. The relative gene expression levels were determined using the ddCt method.

KP230 cells [4] = assay: Percent viability of KP230 cells; format: cell-based, mouse; settings: 10 μM daily for 72 hours
Text: as §1, with “For experimental purposes, cells were cultured for up to 20 passages before being discarded, and were grown to approximately 50% confluence to circumvent the effects of high cell density on Yap1 expression and activity. All cell lines in the Eisinger laboratory were treated with 10 μM of each inhibitor or an equivalent volume of DMSO every 24 hours for 3 days, except for STS-109 cells, which were treated daily for 8 days.” left out
as §2

PAX8 = PAX8 (Homo sapiens, UniProt Q06710); settings: per PubChem; cited from earlier work
Chain of PAX8 (Q06710 whole entry, species assumed): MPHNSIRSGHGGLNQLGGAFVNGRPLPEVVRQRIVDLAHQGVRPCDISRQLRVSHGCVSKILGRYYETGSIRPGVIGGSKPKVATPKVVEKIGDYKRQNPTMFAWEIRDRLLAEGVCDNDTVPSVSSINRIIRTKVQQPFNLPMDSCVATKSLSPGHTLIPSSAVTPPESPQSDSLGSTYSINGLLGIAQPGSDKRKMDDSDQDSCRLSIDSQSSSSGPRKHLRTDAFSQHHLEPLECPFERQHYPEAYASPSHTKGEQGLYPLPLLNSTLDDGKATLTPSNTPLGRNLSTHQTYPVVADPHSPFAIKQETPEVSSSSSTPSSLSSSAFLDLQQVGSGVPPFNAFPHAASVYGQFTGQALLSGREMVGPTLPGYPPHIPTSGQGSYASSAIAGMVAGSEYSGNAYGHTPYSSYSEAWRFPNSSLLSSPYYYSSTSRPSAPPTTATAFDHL

[5] = system: YAP1 overexpression in U2OS cells; assay: Cell Painting morphological profile matching to YAP1/TAZ overexpression signature; format: cell-based, human
Text: as §3
FIG. 2 provides an example characterization of matching the morphological signature of a gene query to the signature(s) of compounds in a library. Connections which show both positive and negative large correlations are considered as matches.
as §4

[6] = system: TRAF2 overexpression in U2OS cells; assay: Cell Painting morphological profile matching to TRAF2 overexpression; format: cell-based, human
Text: as §3, §4

[7] = Pearson correlation of Cell Painting signatures, U2OS cells

Structure (SMILES): CO[C@@H]1CN(C)C(=O)c2ccc(NC(=O)c3ccc(-c4ccccc4)cc3)cc2OC[C@H](C)NC[C@@H]1C [BRD-K28862419, N-[(4S,7S,8S)-8-methoxy-4,7,10-trimethyl-11-oxo-2-oxa-5,10-diazabicyclo[10.4.0]hexadeca-1(12),13,15-trien-15-yl]-4-phenylbenzamide]
- AC50 [1]: 5 to 18 µM
- proliferation (KP230 cells [2]): inhibited KP230 cell proliferation
- proliferation in the U2OS Cell Painting images (U2OS cells): −2.0 st dev
- Avg. Cell Count z-score (U2OS cells; U2OS Cell Painting): −2.044
- mRNA levels of hippo pathway members (YAP1, CTGF, CYR61) [3]: did not dramatically impact
- cell viability (KP230 cells [4]): modestly yet significantly reduced
- PAX8 inhibition (PAX8): inhibits PAX8
- Cell Painting profile correlation with YAP1 overexpression [5]: −0.43
- Corr. to YAP1 cluster [5, 7]: −0.4317
- Cell Painting profile correlation with TRAF2 overexpression [6]: 0.41
- Corr. to TRAF2 [6, 7]: 0.4068
